According to PMC8555409 (Journal of medicinal chemistry, 2021):
Non-standard residues stand in square brackets, D forms with d. Residues, ends and D or L forms follow the SMILES beside them. *: point of attachment. Cyclohexanoyl(1S,3S-3-NH2) = N[C@H]1CCC[C@H](C(=O)*)C1; Trp(5-OH) = N[C@@H](Cc1c[nH]c2ccc(O)cc12)C(=O)O; NH(4-morpholinophenyl) = c1cc(N2CCOCC2)ccc1N*; Bip = N[C@@H](Cc1ccc(-c2ccccc2)cc1)C(=O)O; hArg = N=C(N)NCCCC[C@H](N)C(=O)O

Legend:
EphA4 = settings: cited from earlier work
[1] = system: SOD1(G93A) transgenic mice; settings: daily in vivo administration; cited from earlier work
[2] = system: motor neurons co-cultured with iAstrocytes derived from sALS patients; type: cell-based, mouse; settings: 100 μM, 3 days co-culture
EphA4-LBD = EphA4-LBD (Homo sapiens, UniProt P54764, C204A); assay: 2D [13C,1H] NMR chemical shift perturbations with 13Cε-Met labeled EphA4-LBD
Sequence of EphA4-LBD (P54764 29-209 C204A): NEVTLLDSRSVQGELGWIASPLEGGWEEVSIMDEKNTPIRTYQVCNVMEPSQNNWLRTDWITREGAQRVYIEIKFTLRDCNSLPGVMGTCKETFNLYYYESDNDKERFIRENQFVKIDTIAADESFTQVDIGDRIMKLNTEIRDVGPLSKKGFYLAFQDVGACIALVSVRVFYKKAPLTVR

Row | Compound | agonistic activity for EphA4 in primary cortical neurons (EphA4) | survival [1] | protection of motor neurons from sALS iAstrocytes (motor neuron survival) [2] | Kd (EphA4-LBD) [nM]
1 | COc1ccc2[nH]cc(CCNC(=O)[C@H](Cc3ccncc3)NC(=O)[C@H](Cc3ccc(Cl)cc3)NC(=O)[C@H](Cc3c[nH]c4ccc(O)cc34)NC(=O)CCCN)c2c1 [123C4] | induced receptor phosphorylation and growth cone collapse | significantly prolonged survival | able to protect mouse motor neurons | –
2 | N=C(N)NCCCC[C@H](NC(=O)[C@H](Cc1ccc(-c2ccccc2)cc1)NC(=O)[C@H](Cc1c[nH]c2ccc(O)cc12)NC(=O)[C@H]1CCC[C@H](N)C1)C(=O)NCC(=O)Nc1ccc(N2CCOCC2)cc1 [compound 33] ({Cyclohexanoyl(1S,3S-3-NH2)}-[Trp(5-OH)][Bip][hArg]G-{NH(4-morpholinophenyl)}) | – | – | – | < 60
